Reference: US11426473B2, “Nitrogen-containing compound or salt thereof, or metal complex thereof” (FUJIFILM Corporation, priority 2013, dated 2022)
Where two headings read alike, the source gives them in different places.

Tests used:
[1] = test system: U87MG cells subcutaneous tumor; test: Concentration of radioactivity in tumor of labeled compounds (Test Example 4); format: in vivo, mouse; conditions: tail vein, 111In 740 kBq, 64Cu and 90Y 500 kBq
Description: U87MG cells were subcutaneously transplanted at 1×10^7 cells/mouse to the right flank of Balb/cAJcl-nu/nu (CLEA Japan, Inc. or Japan SLC, Inc., 6 to 9 weeks old). After 2 to 3 weeks, the mice were divided into groups each involving 3 individuals per point in time when their tumors became 200 to 500 mm^3. The ^111In-labeled compound (740 kBq) was administered to the tail veins of the mice.
After a given time, the animals were sacrificed to extract their tumors. The weights of the tumors were measured, and the radioactivity was measured using a gamma counter to calculate the concentration of radioactivity in the tumors (% ID/g). In the same way as above, the concentration of radioactivity in the tumors (% ID/g) was calculated for the ^64Cu-labeled compound (500 kBq) and the ^90Y-labeled compound (500 kBq).

Integrin αvβ3 = target: T1, Integrin αvβ3 (Homo sapiens, UniProt P05106+P06756); test: Integrin αvβ3 binding affinity test
T1 construct: purchased Chemicon International, Inc
Description: (§1) […] αvβ3 (Chemicon International, Inc.) was immobilized on each well of a 96-well plate (Corning Inc.). Each well was blocked with a 1% Block Ace (DS Pharma Biomedical Co., Ltd) solution and then washed with T-PBS (PBS containing 0.05% Tween 20). Evaluation compound solutions having a 2-fold concentration (10 concentrations of 3.16-fold dilutions from 0.3 μmol/L, buffer (20 mM Tris-HCl pH 7.5, 150 mM NaCl, 1 mM CaCl2, 1 mM MgCl2, and 1 mM MnCl2)) and a 4 μg/mL biotinylated vitronectin solution (vitronectin (Upstate Biotechnology Inc.) was labeled with EZ-Link Sulfo-NHS-Biotinylation Kit (Pierce/Thermo Fisher Scientific Inc.) and then concentration-adjusted) were each added at 50 μL/well, and the plate was shaken at room temperature for 2 hours. After washing with T-PBS, a 0.2 μg/mL avidin peroxidase (Pierce/Thermo Fisher Scientific Inc.) solution was added thereto, and the plate was shaken at room temperature for 1 hour. After washing with T-PBS, color was developed by an o-phenylenediamine (Sigma-Aldrich Inc.) solution (the reaction was terminated by the addition of 4 mol/L sulfuric acid), and the absorbance was measured (490 nm, Reference: 595 nm). The IC50 value was calculated using XLfit 3.0 (ID Business Solutions Ltd.). RGDfV (Bachem AG) was measured in duplicate as a QC sample for each plate.

Integrin αvβ5 = target: T2, Integrin αvβ5 (Homo sapiens, UniProt P06756+P18084); test: Integrin αvβ5 binding affinity test
T2 construct: purchased Chemicon International, Inc
Description: as §1, with “αvβ5” for “αvβ3”, “PBST (10 mM Na2HPO4 pH 7.5, 150 mM NaCl, and 0.01%” for “T-PBS (PBS containing 0.05%”, “PBST,” for “T-PBS,”

[2] = inhibition of biotinylated vitronectin binding to immobilized αvβ3, read-out: IC50 value αv β3
[3] = inhibition of biotinylated vitronectin binding to immobilized αvβ5, read-out: IC50 value αvβ5

T2 sequence (P06756 31-889 limits assumed): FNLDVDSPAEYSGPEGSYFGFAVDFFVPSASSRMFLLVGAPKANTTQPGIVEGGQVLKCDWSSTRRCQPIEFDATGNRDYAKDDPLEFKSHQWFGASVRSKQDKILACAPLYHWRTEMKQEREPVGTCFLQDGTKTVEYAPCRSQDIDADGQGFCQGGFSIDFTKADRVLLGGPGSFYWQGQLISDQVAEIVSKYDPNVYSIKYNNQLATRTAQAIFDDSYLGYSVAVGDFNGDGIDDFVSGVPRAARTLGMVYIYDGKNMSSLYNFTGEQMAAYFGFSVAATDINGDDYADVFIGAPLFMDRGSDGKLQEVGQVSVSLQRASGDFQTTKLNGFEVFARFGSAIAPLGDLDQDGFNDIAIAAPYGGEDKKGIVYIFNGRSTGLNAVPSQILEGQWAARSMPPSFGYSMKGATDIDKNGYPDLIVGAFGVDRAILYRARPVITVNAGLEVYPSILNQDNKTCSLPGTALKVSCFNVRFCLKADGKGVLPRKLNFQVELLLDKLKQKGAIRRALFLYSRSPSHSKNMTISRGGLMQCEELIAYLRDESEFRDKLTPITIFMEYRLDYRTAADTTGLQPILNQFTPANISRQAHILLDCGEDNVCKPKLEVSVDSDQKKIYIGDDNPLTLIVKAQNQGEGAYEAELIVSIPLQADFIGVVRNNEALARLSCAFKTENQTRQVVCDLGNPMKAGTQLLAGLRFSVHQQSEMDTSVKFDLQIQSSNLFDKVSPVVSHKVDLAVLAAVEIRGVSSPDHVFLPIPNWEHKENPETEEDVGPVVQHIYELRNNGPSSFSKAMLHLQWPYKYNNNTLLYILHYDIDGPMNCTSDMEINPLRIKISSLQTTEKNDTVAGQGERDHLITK
T2 sequence (P06756 891-1048 partner limits assumed): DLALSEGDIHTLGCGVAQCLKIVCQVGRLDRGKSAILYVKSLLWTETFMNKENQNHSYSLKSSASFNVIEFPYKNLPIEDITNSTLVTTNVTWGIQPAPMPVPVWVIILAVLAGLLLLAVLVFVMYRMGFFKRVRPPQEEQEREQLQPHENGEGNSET
T2 sequence (P18084 24-799): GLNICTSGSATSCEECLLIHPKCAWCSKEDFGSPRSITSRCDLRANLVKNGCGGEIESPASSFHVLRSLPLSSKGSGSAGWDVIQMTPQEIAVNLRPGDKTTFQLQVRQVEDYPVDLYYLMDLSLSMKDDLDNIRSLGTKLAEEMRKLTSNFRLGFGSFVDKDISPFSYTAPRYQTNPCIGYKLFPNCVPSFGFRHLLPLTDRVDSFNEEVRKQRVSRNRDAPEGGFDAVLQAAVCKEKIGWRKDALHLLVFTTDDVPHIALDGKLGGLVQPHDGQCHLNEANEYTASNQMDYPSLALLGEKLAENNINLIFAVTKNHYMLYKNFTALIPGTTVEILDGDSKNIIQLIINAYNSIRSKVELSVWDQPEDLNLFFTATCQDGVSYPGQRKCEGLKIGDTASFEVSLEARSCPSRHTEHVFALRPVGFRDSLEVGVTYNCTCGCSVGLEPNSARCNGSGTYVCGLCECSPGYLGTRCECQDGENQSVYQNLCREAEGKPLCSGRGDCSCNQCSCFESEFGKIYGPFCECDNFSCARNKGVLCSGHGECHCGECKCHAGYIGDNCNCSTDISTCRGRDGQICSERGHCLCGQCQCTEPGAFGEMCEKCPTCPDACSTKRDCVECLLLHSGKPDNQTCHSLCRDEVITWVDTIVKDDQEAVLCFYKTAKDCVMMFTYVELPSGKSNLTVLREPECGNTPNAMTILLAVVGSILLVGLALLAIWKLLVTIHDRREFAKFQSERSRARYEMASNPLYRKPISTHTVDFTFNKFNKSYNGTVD
T1 sequence (P06756 31-889 limits assumed): as the sequence (P06756 31-889 limits assumed) above
T1 sequence (P06756 891-1048 partner limits assumed): as the sequence (P06756 891-1048 partner limits assumed) above
T1 sequence (P05106 27-788): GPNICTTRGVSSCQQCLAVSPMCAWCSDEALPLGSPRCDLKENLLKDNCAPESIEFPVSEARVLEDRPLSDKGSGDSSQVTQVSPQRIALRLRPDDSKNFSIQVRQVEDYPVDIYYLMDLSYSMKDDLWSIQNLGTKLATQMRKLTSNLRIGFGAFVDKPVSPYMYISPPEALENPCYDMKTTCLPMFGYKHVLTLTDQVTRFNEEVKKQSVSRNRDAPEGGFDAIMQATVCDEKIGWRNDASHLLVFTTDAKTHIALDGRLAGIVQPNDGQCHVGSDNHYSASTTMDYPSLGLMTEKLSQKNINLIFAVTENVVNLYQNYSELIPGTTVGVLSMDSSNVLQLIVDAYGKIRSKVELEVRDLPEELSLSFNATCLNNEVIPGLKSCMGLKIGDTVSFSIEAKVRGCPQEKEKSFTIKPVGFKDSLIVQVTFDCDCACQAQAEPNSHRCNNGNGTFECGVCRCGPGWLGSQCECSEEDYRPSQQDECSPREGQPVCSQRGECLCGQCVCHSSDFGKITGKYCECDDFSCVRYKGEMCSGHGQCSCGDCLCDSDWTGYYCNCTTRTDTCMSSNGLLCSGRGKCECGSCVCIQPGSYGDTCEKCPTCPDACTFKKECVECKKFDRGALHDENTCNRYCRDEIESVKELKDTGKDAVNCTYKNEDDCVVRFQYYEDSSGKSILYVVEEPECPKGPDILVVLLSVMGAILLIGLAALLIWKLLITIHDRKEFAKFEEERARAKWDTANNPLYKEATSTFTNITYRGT

Concentration of radioactivity in tumor ([1]; 4 hours later) [% ID/g]	Concentration of radioactivity in tumor ([1]; 24 hours later) [% ID/g]	SMILES	further results
6.95	3.34	Cc1cc(OCCCC(=O)NCCNC(=O)C(CS(=O)(=O)O)NC(=O)C(CS(=O)(=O)O)NC(=O)CN2CCN(CC(=O)[O-])CCN(CC(=O)[O-])CCN(CC(=O)[O-])CC2)cc(C)c1S(=O)(=O)NC(CNC(=O)c1ccc(CCCNc2ccccn2)cc1)C(=O)O.[111In+3] (stereo not shown) [[^111In]-(Z8)]	
11.80	8.41	Cc1cc(OCCCC(=O)NCCNC(=O)COCCOCCNC(=O)COCCOCCNC(=O)CN2CCN(CC(=O)[O-])CCN(CC(=O)[O-])CCN(CC(=O)[O-])CC2)cc(C)c1S(=O)(=O)N[C@@H](CNC(=O)c1ccc(CCc2ccc3c(n2)NCCC3)cc1)C(=O)O.[111In+3] [[^111In]-(F3)]	
		Cc1cc(OCCCC(=O)NCCNC(=O)[C@H](CS(=O)(=O)O)NC(=O)CCC(C(=O)O)N2CCCN3CCN(CCCN(CC(=O)O)CC3)CC2)cc(C)c1S(=O)(=O)N[C@@H](CNC(=O)CCCCc1ccc2c(n1)NCCC2)C(=O)O (single isomer, unassigned) [Ab9-a]	IC50 (Integrin αvβ3; [2]): < 1 nM; IC50 (Integrin αvβ5; [3]): < 1 nM
9.17	8.74	Cc1cc(OCCCC(=O)NCCNC(=O)C(CS(=O)(=O)O)NC(=O)CCC(NC(=O)CN2CCN(CC(=O)[O-])CCN(CC(=O)[O-])CCN(CC(=O)[O-])CC2)C(=O)NC(CS(=O)(=O)O)C(=O)NCCNC(=O)CCCOc2cc(C)c(S(=O)(=O)NC(CNC(=O)c3ccc(CCc4ccc5c(n4)NCCC5)cc3)C(=O)O)c(C)c2)cc(C)c1S(=O)(=O)NC(CNC(=O)c1ccc(CCc2ccc3c(n2)NCCC3)cc1)C(=O)O.[111In+3] (stereo not shown) [[^111In]-(H9)]	
		Cc1cc(OCCCC(=O)NCCNC(=O)[C@H](CS(=O)(=O)O)NC(=O)CN2CCN(CC(=O)O)CCN(CC(=O)O)CCN(CC(=O)O)CC2)cc(C)c1S(=O)(=O)N[C@H](CNC(=O)CCCCc1ccc2c(n1)NCCC2)C(=O)O [Compound K8, 2,2′,2′-(10-(2-(((R)-1-((2-(4-(4-(N—((R)-1-carboxy-2-(5-(5,6,7,8-tetrahydro-1,8-naphthyridin-2-yl)pentanamido)ethyl)sulfamoyl)-3,5-dimethylphenoxy)butanamido)ethyl)amino)-1-oxo-3-sulfopropan-2-yl)amino)-2-oxoethyl)-1,4,7,10-tetraazacyclododecane-1,4,7-triyl)triacetic acid]	IC50 (Integrin αvβ3; [2]): < 1 nM; IC50 (Integrin αvβ5; [3]): 1 to 10 nM
		Cc1cc(OCCCC(=O)NCCNC(=O)C(CS(=O)(=O)O)NC(=O)CN2CCN3CCN4CCN(CC2)CC(=O)[O][Y]([O]C(=O)C3)[O]C(=O)C4)cc(C)c1S(=O)(=O)NC(CNC(=O)CCCCc1ccc2c(n1)NCCC2)C(=O)O (stereo not shown) [DD]	IC50 (Integrin αvβ3): < 1 nM; IC50 (Integrin αvβ5): < 1 nM
		Cc1cc(OCCCC(=O)NCCNC(=O)[C@H](CS(=O)(=O)O)NC(=O)CC[C@H](C(=O)O)N2CCN(CC(=O)O)CCN(CC(=O)O)CC2)cc(C)c1S(=O)(=O)N[C@@H](CNC(=O)CCCCc1ccc2c(n1)NCCC2)C(=O)O [Aa7, 2,2′-(7-((R)-1-carboxy-4-(((R)-1-((2-(4-(4-(N—((S)-1-carboxy-2-(5-(5,6,7,8-tetrahydro-1,8-naphthyridin-2-yl)pentanamido)ethyl)sulfamoyl)-3,5-dimethylphenoxy)butanamido)ethyl)amino)-1-oxo-3-sulfopropan-2-yl)amino)-4-oxobutyl)-1,4,7-triazonane-1,4-diyl)diacetic acid]	IC50 (Integrin αvβ3; [2]): < 1 nM; IC50 (Integrin αvβ5; [3]): < 1 nM
8.58	11.00	Cc1cc(OCCCC(=O)NCCNC(=O)[C@H](CS(=O)(=O)O)NC(=O)CN2CCN(CC(=O)[O-])CCN(CC(=O)[O-])CCN(CC(=O)[O-])CC2)cc(C)c1S(=O)(=O)N[C@@H](CNC(=O)c1ccc(CCc2ccc3c(n2)NCCC3)cc1)C(=O)O.[111In+3] [[^111In]-(B2)]	
10.60	9.95	O=C([O-])CN1CCN(CC(=O)[O-])CCN(CC(=O)NC(CS(=O)(=O)O)C(=O)NC(CS(=O)(=O)O)C(=O)NCCNC(=O)CCCOc2cncc(C(CC(=O)O)n3ccc4cc(OCCc5ccc6c(n5)NCCC6)ccc43)c2)CCN(CC(=O)[O-])CC1.[111In+3] (mixture of isomers) [[^111In]-(I21)]	
11.00	12.40	Cc1cc(OCCCC(=O)NCCNC(=O)COCCOCCNC(=O)C(CCCCN)NC(=O)CN2CCN(CC(=O)[O-])CCN(CC(=O)[O-])CCN(CC(=O)[O-])CC2)cc(C)c1S(=O)(=O)NC(CNC(=O)c1ccc(CCc2ccc3c(n2)NCCC3)cc1)C(=O)O.[111In+3] (stereo not shown) [[^111In]-(E3)]	
		O=C(O)C[C@H](NC(=O)c1ccc(CCc2ccc3c(n2)NCCC3)cc1)c1ccc(OCCCC(=O)NCCNC(=O)[C@H](CS(=O)(=O)O)NC(=O)[C@H](CS(=O)(=O)O)NC(=O)CN2CCN(CC(=O)O)CCN(CC(=O)O)CCN(CC(=O)O)CC2)c(F)c1 [Compound Q12, 2,2′,2″-(10-((4R,7R)-16-(4-((S)-2-carboxy-1-(4-(2-(5,6,7,8-tetrahydro-1,8-naphthyridin-2-yl)ethyl)benzamido)ethyl)-2-fluorophenoxy)-2,5,8,13-tetraoxo-4,7-bis(sulfomethyl)-3,6,9,12-tetraazahexadecyl)-1,4,7,10-tetraazacyclododecane-1,4,7-triyl)triacetic acid]	IC50 (Integrin αvβ3; [2]): < 1 nM
12.80	12.40	Cc1cc(OCCCC(=O)NCCNC(=O)C(CS(=O)(=O)O)NC(=O)C(CS(=O)(=O)O)NC(=O)CN2CCN(CC(=O)[O-])CCN(CC(=O)[O-])CCN(CC(=O)[O-])CC2)cc(C)c1S(=O)(=O)NC(CNC(=O)CCCCc1ccc2c(n1)NCCC2)C(=O)O.[111In+3] (stereo not shown) [[^111In]-(O10)]	
10.50	7.73	Cc1cc(OCCCC(=O)NCCNC(=O)COCCOCCNC(=O)CN2CCN(CC(=O)[O-])CCN(CC(=O)[O-])CCN(CC(=O)[O-])CC2)cc(C)c1S(=O)(=O)N[C@@H](CNC(=O)c1ccc(CCc2ccc3c(n2)NCCC3)cc1)C(=O)O.[111In+3] [[^111In]-(D3)]	

SMILES	Concentration of radioactivity in tumor ([1]; 4 hours later) [% ID/g]	Concentration of radioactivity in tumor ([1]; 24 hours later) [% ID/g]	further results
Cc1cc(OCCCC(=O)NCCNC(=O)COCCOCCNC(=O)[C@H](CS(=O)(=O)O)NC(=O)CN2CCN(CC(=O)[O-])CCN(CC(=O)[O-])CCN(CC(=O)[O-])CC2)cc(C)c1S(=O)(=O)N[C@@H](CNC(=O)c1ccc(CCc2ccc3c(n2)NCCC3)cc1)C(=O)O.[111In+3] [[^111In]-(G3)]	10.50	9.82	
Cc1cc(OCCCC(=O)NCCNC(=O)[C@H](CS(=O)(=O)O)NC(=O)[C@H](CS(=O)(=O)O)NC(=O)CN2CCN(CC(=O)[O-])CCN(CC(=O)[O-])CCN(CC(=O)[O-])CC2)cc(C)c1S(=O)(=O)N[C@@H](CNC(=O)c1ccc(CCc2cccc(N)n2)cc1)C(=O)O.[111In+3] [[^111In]-(N3)]	9.75	5.93	
Cc1cc(OCCCC(=O)NCCNC(=O)[C@H](CS(=O)(=O)O)NC(=O)[C@H](CS(=O)(=O)O)NC(=O)CN2CCN(CC(=O)[O-])CCN(CC(=O)[O-])CCN(CC(=O)[O-])CC2)cc(C)c1S(=O)(=O)N[C@@H](CNC(=O)c1ccc(CCc2ccc3c(n2)NCCC3)s1)C(=O)O.[111In+3] [[^111In]-(X9)]	8.54	8.54	
